Data from US7745569B2, “Amyloid specific binding peptides and detecting abeta peptide” (The Regents of the University of California, priority 2003, dated 2010).
Entries after “also recorded” stand apart in the source; their conditions may differ. One block for each compound: values may come before it. Positions of bridges follow the written chain, without caps; N, C: chain ends. Residues, ends and D or L forms follow the SMILES beside them. No end group written: not given here. *: point of attachment. Biotin = O=C1N[C@H]2[C@H](CS[C@H]2CCCCC(=O)*)N1

Assays:
Aβ1-40 amyloid = molecular target: T1, Aβ1-40 amyloid (Homo sapiens, UniProt P05067, R676K/Y681T); format: binding; settings: immobilized Aβ1-40 amyloid, ELISA
T1 construct: purchased Bachem (Torrence, Calif.)

[1] = system: amyloid plaques in Alzheimer's disease brain; assay: Staining of human brain sections (AD and normal) with Thio-Aβ, Thio and synthetic peptide; format: binding
Method: Staining of human brain with recombinant Thio-Aβ-protein and synthetic peptides: Normal and AD brain samples were obtained from the UCSD Alzheimer's Research Center (La Jolla, Calif.). Sections from a non-AD amyloidosis patient were obtained from the Department of Pathology (UCSD). Paraffin-embedded samples of cortex or other tissues were sectioned at 10 μm and mounted on glass slides. […] Binding was determined by subsequent staining with anti-Thio antibody and anti-mouse IgG coupled to alkaline phosphatase as above. After washing, staining was developed using 5-bromo-4-chloro-3-indolyl-phosphate and nitroblue tetrazolium for identical periods of time. All washes and incubations were done in phage buffer. The existence of amyloid plaques was confirmed by binding of anti-Aβ monoclonal antibody (2066) to sections from the same brain samples. No significant staining was ever observed with secondary antibody alone. Background staining was allowed to develop to the point where cells in the section were evident.
For staining with synthetic peptide, tissue sections from AD and non-AD brain, as well as from brain, kidney, small bowel, large bowel, and prostate from a non-AD patient with amyloidosis, were cut and prepared as above. Biotinylated peptide ([…]) (SEQ ID NO:4) was added in phage buffer for 1 hour at concentrations ranging from 0.1-10 μM. Sections were washed with phage buffer, incubated with streptavidin coupled to alkaline phosphatase, washed and developed as above. […] Congo Red or hematoxylin and eosin staining was done to confirm the presence of amyloid in amyloidosis sections.

[2] = molecular target: T2, amyloid form of Aβ1-40 peptide (Homo sapiens, UniProt P05067, R676K/Y681T); assay: Staining of Aβ1-40 amyloid by phage clones; format: binding; settings: 10^11 PFU/ml phage; anti-M13 antibody/alkaline phosphatase detection
T2 construct: purchased Bachem (Torrence, Calif.)
Method: Staining and blotting with phage: 10^11 PFU (plaque forming units)/ml of various phage clones were incubated with the amyloid form of Aβ1-40 peptide. Aβ amyloid was made by incubating peptide in TBS (pH 7.4) for 7 days on Falcon 24-well tissue culture wells. After washing, bound phage were visualized by incubation with biotinylated anti-M13 antibody and alkaline phosphatase-conjugated streptavidin, followed by incubation for equivalent times in 5-bromo-4-chloro-3-indolyl phosphate (BCIP) and nitroblue tetrazolium (NBT).

[3] = mouse, in vivo, iv
Method: (§1) Peptides were injected in sterile Tris-buffered saline, pH 7.4, with 1 mM CaCl2 and 1 mM MgCl2. 4 animals were injected for each condition. Animals were then sacrificed after one minute or two minutes. Immediately upon sacrifice, blood and organs were harvested. To quantitate peptide uptake, brain, liver, and kidney were washed and the tissues lysed by homogenization in doubly distilled water. Organs and blood were centrifuged at 13000 g to collect lysate. Organ lysates or serum were then immobilized on ELISA plates that had been coated with nitrocellulose. Some tissue and serum samples were spiked with known amounts of purified peptide to verify levels of peptide immobilization in different sample types. […] The levels of biotinylated peptide immobilized on ELISA plates was quantitated by binding of alkaline phosphatase-conjugated streptavidin. Levels of streptavidin binding were determined by development with para-nitrophenylphosphate, as in Kang et al. (Neurobiology of Disease 14:146-156 (2003)).

[4] = Uptake of peptide into brain, liver and kidney after tail vein injection; settings: mouse, i.v. tail vein, 100 μL of 1 mg/mL; percentage relative to peptide in serum; SD, n=4
Method: as §1

Compound: Thio-Aβ: Recombinant fusion protein of thioredoxin with the cysteine-flanked DWGKGGRWRLWPGASGKTEA (SEQ ID NO:2) peptide (PAECDWGKGGRWRLWPGASGKTEACGPPY; cysteine pairing not given here; also: recombinant fusion with thioredoxin, carrier left off)
concentration at which binding to Aβ1-40 amyloid is saturating (Aβ1-40 amyloid): 200 nM
lowest concentration giving positive staining of amyloid plaques ([1]; AD brain sections): 100 nM
staining of neurofibrillary tangles ([1]; AD brain sections): not evident
staining of amyloid plaques in AD brain ([1]; paraffin sections of AD brain): heavily stained amyloid plaques from AD brains; also recorded: bound specifically to amyloid plaques in AD brains; also recorded: confirmed in brains from multiple AD subjects
staining of normal brain ([1]; paraffin sections of normal (non-AD) brain): did not stain any structures in normal brain tissue; also recorded: did not bind to normal brain samples; also recorded: negative in multiple non-AD controls

Compound: PGRSPFTGKKLFNQEFSQDQ
staining of Aβ1-40 amyloid by phage clone [2]: stained Aβ1-40 amyloid aggregates more poorly, but still stained well above background levels; also recorded: stained Aβ1-40 amyloid less well

Compound: DWGKGGRWRLWPGASGKTEA
staining of Aβ1-40 amyloid by phage clone [2]: identified both small and large (0.5-50 μm) accumulations of Aβ1-40 amyloid; also recorded: stained Aβ1-40 amyloid

crossing of the blood-brain barrier (in words) [3]: did not cross the blood-brain barrier
Compound: CC(C)C[C@H](NC(=O)[C@H](CCCNC(=N)N)NC(=O)[C@H](Cc1c[nH]c2ccccc12)NC(=O)[C@H](CCCNC(=N)N)NC(=O)CNC(=O)CNC(=O)[C@H](CCCCN)NC(=O)CNC(=O)[C@H](Cc1c[nH]c2ccccc12)NC(=O)[C@H](CC(=O)O)NC(=O)CCCC[C@@H]1SC[C@@H]2NC(=O)N[C@@H]21)C(=O)N[C@@H](Cc1c[nH]c2ccccc12)C(=O)N1CCC[C@H]1C(=O)NCC(=O)N[C@@H](C)C(=O)N[C@@H](CO)C(=O)NCC(=O)N[C@@H](CCCCN)C(=O)N[C@H](C(=O)N[C@@H](CCC(=O)O)C(=O)N[C@@H](C)C(=O)O)[C@@H](C)O (Biotin-DWGKGGRWRLWPGASGKTEA-OH)

% uptake/min, Kidney [4]: 0.16 ± 0.02% uptake/min
Compound: CC(C)C[C@@H]1NC(=O)[C@H](CCCNC(=N)N)NC(=O)[C@H](Cc2c[nH]c3ccccc23)NC(=O)[C@H](CCCNC(=N)N)NC(=O)CNC(=O)CNC(=O)[C@H](CCCCN)NC(=O)CNC(=O)[C@H](Cc2c[nH]c3ccccc23)NC(=O)[C@H](CC(=O)O)NC(=O)[C@@H](NC(=O)[C@H](CCC(=O)O)NC(=O)[C@H](C)NC(=O)CCCC[C@@H]2SC[C@@H]3NC(=O)N[C@@H]32)CSSC[C@@H](C(=O)NCC(=O)N2CCC[C@H]2C(=O)O)NC(=O)[C@H](C)NC(=O)[C@H](CCC(=O)O)NC(=O)[C@H]([C@@H](C)O)NC(=O)[C@H](CCCCN)NC(=O)CNC(=O)[C@H](CO)NC(=O)[C@H](C)NC(=O)CNC(=O)[C@@H]2CCCN2C(=O)[C@H](Cc2c[nH]c3ccccc23)NC1=O (Biotin-AECDWGKGGRWRLWPGASGKTEACGP-OH; disulfide 3-24 (inferred); C-terminus assumed)
